Values belong to the compound of their own block, whether it stands above or below them.
Columns and labels:
[1] = molecular target: T1, Cyclin-dependent kinase 2 (Homo sapiens, UniProt P24941); experiment: Binding affinity to CDK2 (unknown origin) assessed as dissociation rate constant
[2] = molecular target: T1, Cyclin-dependent kinase 2; experiment: Binding affinity to CDK2 (unknown origin) assessed as association rate constant
[3] = molecular target: T1, Cyclin-dependent kinase 2; experiment: Binding affinity to CDK2 (unknown origin) assessed as inactivation constant
[4] = molecular target: Receptor-type tyrosine-protein kinase FLT3 (Homo sapiens, UniProt P36888, D835V); experiment: Binding affinity to human FLT3 D835V mutant
[5] = molecular target: Cyclin-dependent kinase 4/cyclin D1 (Homo sapiens, UniProt P11802); experiment: Inhibition of human CDK4/cyclinD1; format: protein-complex assay
[6] = molecular target: Serine/threonine-protein kinase Nek10 (Homo sapiens, UniProt Q6ZWH5); experiment: Binding affinity to NEK10 (unknown origin)
CDK9/Cyclin-H = CDK9/Cyclin-H (Homo sapiens, UniProt P50750+P51946); experiment: Inhibition of CDK9/cyclin H (unknown origin); format: protein-complex assay
Chain of CDK9/Cyclin-H (P51946 whole entry): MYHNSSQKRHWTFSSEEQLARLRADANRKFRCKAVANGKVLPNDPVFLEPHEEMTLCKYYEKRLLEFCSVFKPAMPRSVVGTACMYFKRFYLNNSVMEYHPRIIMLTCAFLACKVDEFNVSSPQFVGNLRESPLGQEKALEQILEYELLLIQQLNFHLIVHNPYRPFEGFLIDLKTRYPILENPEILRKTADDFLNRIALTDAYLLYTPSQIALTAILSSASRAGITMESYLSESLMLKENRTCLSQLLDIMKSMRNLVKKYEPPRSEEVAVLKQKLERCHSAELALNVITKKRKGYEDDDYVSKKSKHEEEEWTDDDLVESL
Chain of CDK9/Cyclin-H (P50750 whole entry): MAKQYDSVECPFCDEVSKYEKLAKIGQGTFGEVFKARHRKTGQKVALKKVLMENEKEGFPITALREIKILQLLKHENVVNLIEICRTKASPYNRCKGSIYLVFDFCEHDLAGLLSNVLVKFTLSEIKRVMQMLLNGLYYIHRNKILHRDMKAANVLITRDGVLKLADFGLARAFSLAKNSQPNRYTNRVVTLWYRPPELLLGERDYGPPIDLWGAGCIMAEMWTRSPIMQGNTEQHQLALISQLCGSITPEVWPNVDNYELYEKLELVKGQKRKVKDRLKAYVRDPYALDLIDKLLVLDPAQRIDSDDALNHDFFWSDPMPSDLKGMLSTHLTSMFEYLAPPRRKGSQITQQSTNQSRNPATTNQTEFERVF

[7] = molecular target: NUAK family SNF1-like kinase 2 (Homo sapiens, UniProt Q9H093); experiment: Binding affinity to SNARK (unknown origin)
[8] = molecular target: T2, Cyclin-dependent kinase 2/cyclin E1 (Homo sapiens, UniProt P24941); experiment: Inhibition of human CDK2/cyclin E; format: protein-complex assay
[9] = molecular target: Receptor-type tyrosine-protein kinase FLT3 (Homo sapiens, UniProt P36888, ITD); experiment: Binding affinity to human FLT3 ITD mutant
[10] = molecular target: Cyclin-dependent kinase 4 (Homo sapiens, UniProt P11802); experiment: Competitive reversible inhibition of CDK4 (unknown origin)
[11] = molecular target: Cyclin-dependent kinase 8 (Homo sapiens, UniProt P49336); experiment: Competitive reversible inhibition of CDK8 (unknown origin)
Chain of Cyclin-dependent kinase 8 (P49336 whole entry): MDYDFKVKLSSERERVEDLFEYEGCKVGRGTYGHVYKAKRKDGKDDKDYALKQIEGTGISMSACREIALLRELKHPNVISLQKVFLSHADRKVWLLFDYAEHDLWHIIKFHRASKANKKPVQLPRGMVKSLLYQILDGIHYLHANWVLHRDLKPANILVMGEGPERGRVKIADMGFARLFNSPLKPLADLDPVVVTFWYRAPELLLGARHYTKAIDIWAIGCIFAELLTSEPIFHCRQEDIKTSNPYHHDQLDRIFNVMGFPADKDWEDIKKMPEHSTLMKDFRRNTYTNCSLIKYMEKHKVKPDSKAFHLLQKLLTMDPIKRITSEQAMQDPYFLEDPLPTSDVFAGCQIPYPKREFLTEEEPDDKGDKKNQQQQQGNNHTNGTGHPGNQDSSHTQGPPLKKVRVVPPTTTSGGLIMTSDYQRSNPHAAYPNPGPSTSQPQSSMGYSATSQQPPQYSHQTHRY

HCT-116 = experiment: Anti-tumor activity in human HCT116 cells xenografted in in vivo animal model assessed tumor growth inhibition at 100 mg/kg, qd after 13 days relative to control; format: functional; details: HCT-116, 312 h, read-out: TGI
[12] = molecular target: Cyclin-dependent kinase 6 (Homo sapiens, UniProt Q00534); experiment: Competitive reversible inhibition of CDK6 (unknown origin)
[13] = molecular target: Cyclin-dependent kinase 5 (Homo sapiens, UniProt Q00535); experiment: Competitive reversible inhibition of CDK5 (unknown origin)
Chain of Cyclin-dependent kinase 5 (Q00535 whole entry): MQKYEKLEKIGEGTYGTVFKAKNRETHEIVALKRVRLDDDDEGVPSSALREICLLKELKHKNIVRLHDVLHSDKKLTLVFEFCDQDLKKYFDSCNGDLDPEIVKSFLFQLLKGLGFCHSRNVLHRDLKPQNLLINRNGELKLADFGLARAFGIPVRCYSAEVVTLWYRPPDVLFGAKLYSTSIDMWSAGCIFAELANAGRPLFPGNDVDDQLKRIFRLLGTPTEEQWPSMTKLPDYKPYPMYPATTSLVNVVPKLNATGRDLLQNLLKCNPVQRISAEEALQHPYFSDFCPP

CDK12/Cyclin K [14] = molecular target: T3, CDK12/Cyclin K (Homo sapiens, UniProt Q9NYV4)
T3 sequence (O75909 whole entry): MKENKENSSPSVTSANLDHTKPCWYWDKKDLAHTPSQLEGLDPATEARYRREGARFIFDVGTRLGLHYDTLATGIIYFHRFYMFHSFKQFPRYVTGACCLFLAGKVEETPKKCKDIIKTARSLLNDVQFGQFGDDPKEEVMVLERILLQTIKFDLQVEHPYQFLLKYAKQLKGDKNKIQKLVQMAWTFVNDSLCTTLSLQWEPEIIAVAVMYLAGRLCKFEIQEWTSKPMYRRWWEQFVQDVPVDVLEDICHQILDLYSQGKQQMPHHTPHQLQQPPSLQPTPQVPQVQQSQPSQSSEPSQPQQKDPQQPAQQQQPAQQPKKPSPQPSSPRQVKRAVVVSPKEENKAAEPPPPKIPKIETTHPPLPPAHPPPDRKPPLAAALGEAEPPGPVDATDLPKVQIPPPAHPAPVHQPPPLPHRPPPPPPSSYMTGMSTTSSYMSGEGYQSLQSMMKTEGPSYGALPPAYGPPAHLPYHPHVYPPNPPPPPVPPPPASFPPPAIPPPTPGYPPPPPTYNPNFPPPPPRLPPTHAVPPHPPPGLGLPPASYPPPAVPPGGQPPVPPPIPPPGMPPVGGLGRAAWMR
T3 sequence (Q9NYV4 whole entry): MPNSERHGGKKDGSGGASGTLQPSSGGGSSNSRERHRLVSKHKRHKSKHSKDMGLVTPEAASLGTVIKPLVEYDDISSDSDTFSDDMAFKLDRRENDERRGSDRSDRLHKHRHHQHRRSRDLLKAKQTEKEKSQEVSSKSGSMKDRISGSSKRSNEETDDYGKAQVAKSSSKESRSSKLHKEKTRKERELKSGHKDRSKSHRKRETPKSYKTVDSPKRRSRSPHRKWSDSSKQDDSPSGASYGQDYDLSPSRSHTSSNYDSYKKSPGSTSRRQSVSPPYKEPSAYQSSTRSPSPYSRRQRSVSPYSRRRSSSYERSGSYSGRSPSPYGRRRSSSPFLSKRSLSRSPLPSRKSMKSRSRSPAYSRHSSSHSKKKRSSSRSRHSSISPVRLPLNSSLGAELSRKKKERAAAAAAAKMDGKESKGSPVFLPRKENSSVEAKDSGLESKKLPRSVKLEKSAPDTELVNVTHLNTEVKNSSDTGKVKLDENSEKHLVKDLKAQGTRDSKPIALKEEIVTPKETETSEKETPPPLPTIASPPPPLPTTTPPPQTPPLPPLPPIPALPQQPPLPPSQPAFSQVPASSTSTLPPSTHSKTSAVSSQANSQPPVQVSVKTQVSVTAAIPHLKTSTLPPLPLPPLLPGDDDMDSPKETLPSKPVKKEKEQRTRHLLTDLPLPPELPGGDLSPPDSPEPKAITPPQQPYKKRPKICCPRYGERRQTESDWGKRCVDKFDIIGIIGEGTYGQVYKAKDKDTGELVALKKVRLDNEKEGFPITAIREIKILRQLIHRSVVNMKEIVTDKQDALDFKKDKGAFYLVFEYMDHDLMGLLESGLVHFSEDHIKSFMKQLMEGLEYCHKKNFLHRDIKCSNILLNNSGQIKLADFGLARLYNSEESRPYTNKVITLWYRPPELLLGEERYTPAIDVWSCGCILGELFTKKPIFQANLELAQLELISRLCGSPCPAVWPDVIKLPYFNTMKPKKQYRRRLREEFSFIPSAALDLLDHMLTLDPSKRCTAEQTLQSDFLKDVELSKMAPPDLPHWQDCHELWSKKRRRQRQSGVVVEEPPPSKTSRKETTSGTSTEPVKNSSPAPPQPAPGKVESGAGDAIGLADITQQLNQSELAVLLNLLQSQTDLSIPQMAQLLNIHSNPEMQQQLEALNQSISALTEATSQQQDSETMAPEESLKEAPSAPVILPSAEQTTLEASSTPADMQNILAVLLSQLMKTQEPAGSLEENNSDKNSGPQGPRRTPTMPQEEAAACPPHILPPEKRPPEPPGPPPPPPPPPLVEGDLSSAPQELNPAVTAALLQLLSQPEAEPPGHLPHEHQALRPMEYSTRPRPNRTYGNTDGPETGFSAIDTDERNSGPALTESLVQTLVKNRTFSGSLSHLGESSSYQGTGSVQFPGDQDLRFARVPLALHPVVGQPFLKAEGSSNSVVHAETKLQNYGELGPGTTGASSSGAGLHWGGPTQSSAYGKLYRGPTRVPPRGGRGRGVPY

[15] = molecular target: Cyclin-dependent kinase 13/Cyclin-K (Homo sapiens, UniProt Q14004)
CDK12/Cyclin K [16] = molecular target: T3, CDK12/Cyclin K; experiment: Competitive irreversible inhibition of CDK12/cyclinK (unknown origin) in presence of Km ATP; format: protein-complex assay
HL-60 = experiment: Antiproliferative activity against human HL60 cells after 72 hrs by CellTiter-Glo assay; format: functional, cell-based; details: HL-60, 72 h
[17] = Clearance in mouse; format: ADME, organism-based; details: in vivo
CDK7/Cyclin H/MNAT1 [18] = molecular target: T4, CDK7/Cyclin H/MNAT1 (Homo sapiens, UniProt P50613); experiment: Competitive irreversible inhibition of CDK7/cyclinH/MAT1 (unknown origin) using 5-FAM YSPTSPSYSPTSPSYSPTSPSKKKK as substrate in presence of Km ATP; format: protein-complex assay
T4 sequence (P51946 whole entry): as the sequence (P51946 whole entry) above
T4 sequence (P50613 whole entry): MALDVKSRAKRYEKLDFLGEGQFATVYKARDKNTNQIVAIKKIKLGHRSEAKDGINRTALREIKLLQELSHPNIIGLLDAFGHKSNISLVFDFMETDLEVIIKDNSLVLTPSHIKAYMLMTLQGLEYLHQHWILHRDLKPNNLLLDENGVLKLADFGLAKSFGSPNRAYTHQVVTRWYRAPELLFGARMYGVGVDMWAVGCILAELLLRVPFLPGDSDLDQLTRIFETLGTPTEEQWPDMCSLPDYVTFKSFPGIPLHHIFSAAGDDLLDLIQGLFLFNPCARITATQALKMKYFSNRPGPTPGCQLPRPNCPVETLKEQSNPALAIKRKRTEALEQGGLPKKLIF
T4 sequence (P51948 whole entry, further chain): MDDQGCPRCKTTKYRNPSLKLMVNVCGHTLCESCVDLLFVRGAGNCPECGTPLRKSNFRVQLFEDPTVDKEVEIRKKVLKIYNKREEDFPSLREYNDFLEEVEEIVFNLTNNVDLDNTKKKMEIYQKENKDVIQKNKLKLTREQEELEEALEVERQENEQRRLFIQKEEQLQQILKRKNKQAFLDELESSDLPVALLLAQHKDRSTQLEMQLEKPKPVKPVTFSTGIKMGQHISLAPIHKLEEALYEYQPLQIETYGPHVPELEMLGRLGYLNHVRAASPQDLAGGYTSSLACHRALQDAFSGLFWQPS

CDK7/Cyclin H/MNAT1 [19] = molecular target: T4, CDK7/Cyclin H/MNAT1; experiment: Competitive irreversible inhibition of CDK7/cyclinH/MAT1 (unknown origin) using 5-FAM YSPTSPSYSPTSPSYSPTSPSKKKK as substrate in presence of 2 mM ATP; format: protein-complex assay
CDK9/cyclin T1 [20] = molecular target: T5, CDK9/cyclin T1 (Homo sapiens, UniProt P50750); experiment: Competitive irreversible inhibition of CDK9/cyclin T (unknown origin) in presence of Km ATP; format: protein-complex assay
T5 sequence (O60563 whole entry): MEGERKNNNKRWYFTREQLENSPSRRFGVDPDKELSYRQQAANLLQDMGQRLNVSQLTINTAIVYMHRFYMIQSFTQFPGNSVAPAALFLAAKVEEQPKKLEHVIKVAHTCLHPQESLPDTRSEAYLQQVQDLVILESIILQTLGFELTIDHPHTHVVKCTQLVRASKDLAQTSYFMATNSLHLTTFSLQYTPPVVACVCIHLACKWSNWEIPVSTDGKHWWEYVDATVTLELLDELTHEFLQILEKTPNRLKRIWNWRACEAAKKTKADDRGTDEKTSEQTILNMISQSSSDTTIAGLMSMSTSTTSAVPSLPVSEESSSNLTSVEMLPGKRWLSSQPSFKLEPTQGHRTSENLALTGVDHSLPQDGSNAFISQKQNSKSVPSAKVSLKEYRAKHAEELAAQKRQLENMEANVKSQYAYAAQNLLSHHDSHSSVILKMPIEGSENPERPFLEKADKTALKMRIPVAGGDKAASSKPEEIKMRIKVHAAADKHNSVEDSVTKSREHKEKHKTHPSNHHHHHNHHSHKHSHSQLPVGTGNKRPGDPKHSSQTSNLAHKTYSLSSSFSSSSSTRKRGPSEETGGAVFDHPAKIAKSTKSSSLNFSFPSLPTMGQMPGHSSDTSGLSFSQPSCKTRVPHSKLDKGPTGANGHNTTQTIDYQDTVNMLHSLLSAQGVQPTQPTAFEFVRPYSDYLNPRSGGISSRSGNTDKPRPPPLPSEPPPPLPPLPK
T5 sequence (P50750 whole entry): as the sequence (P50750 whole entry) above

CDK7/Cyclin H/MNAT1 [21] = molecular target: T4, CDK7/Cyclin H/MNAT1; experiment: Competitive irreversible inhibition of CDK7/cyclinH/MAT1 (unknown origin); format: protein-complex assay
CDK7/Cyclin H/MNAT1 [22] = molecular target: T4, CDK7/Cyclin H/MNAT1; experiment: Competitive irreversible inhibition of CDK7/cyclinH/MAT1 (unknown origin) using 5-FAM YSPTSPSYSPTSPSYSPTSPSKKKK as substrate; format: protein-complex assay
Hs 683 = experiment: Antiproliferative activity against human Hs683 cells; format: functional, cell-based
[23] = molecular target: T1, Cyclin-dependent kinase 2; experiment: Inhibition of CDK2 (unknown origin) relative to control; details: concentration not given here
[24] = molecular target: Cyclin-dependent kinase 1 (Homo sapiens) (UniProt P06493); experiment: Inhibition of CDK1 (unknown origin) relative to control; details: concentration not given here
[25] = molecular target: Cyclin-dependent kinase 14/Cyclin-Y (Homo sapiens, UniProt O94921+Q8ND76); experiment: Competitive irreversible inhibition of CDK14/cyclin Y (unknown origin) in presence of Km ATP; format: protein-complex assay
K562 = experiment: Antiproliferative activity against wild type human K562 cells; format: functional, cell-based
[26] = molecular target: T1, Cyclin-dependent kinase 2; experiment: Inhibition of CDK2 (unknown origin)
[27] = Antiproliferative activity against imatinib-resistant human K562R-2 cells; format: functional
[28] = Antiproliferative activity against imatinib-resistant human K562R-1 cells; format: functional
CDK7/Cyclin H/MNAT1 [29] = molecular target: T4, CDK7/Cyclin H/MNAT1; experiment: Competitive irreversible inhibition of CDK7/cyclinH/MAT1 (unknown origin) in presence of 1 mM ATP; format: protein-complex assay
[30] = molecular target: T6, CDK7/Cyclin H/MNAT1 (Homo sapiens) (UniProt P51946+P50613+P51948); experiment: Ratio of Ki CDK7/cyclinH/MAT1 (unknown origin) to Kinact CDK7/cyclinH/MAT1 (unknown origin) assessed as inactivation constant; format: protein-complex assay
[31] = molecular target: T6, CDK7/Cyclin H/MNAT1 (Homo sapiens); experiment: Competitive irreversible inhibition of CDK7/cyclinH/MAT1 (unknown origin) assessed as inactivation constant using 5-FAM YSPTSPSYSPTSPSYSPTSPSKKKK as substrate; format: protein-complex assay
[32] = molecular target: T2, Cyclin-dependent kinase 2/cyclin E1; experiment: Competitive irreversible inhibition of CDK2/cyclin E (unknown origin); format: protein-complex assay
CDK9/cyclin T1 [33] = molecular target: T5, CDK9/cyclin T1; experiment: Competitive irreversible inhibition of CDK9/cyclin T (unknown origin); format: protein-complex assay
OVCAR-3 = experiment: Antiproliferative activity against human OVCAR3 cells; format: functional, cell-based
MCF7 = experiment: Antiproliferative activity against human MCF7 cells; format: functional, cell-based
[34] = molecular target: T2, Cyclin-dependent kinase 2/cyclin E1; experiment: Competitive reversible inhibition of CDK2/cyclin E (unknown origin); format: protein-complex assay

K [1]: 0.07 s⁻¹
K [2]: 0.55 ×10⁶ /M/s
Kinact [3]: 5 ×10³ /M/s
SMILES: C=CS(=O)(=O)c1ccc(Nc2nc(OCC3CCCCC3)c3nc[nH]c3n2)cc1

Kd [4]: 22 nM
EC50 [5]: < 100 nM
Kd [6]: 0.2 nM
IC50 (CDK9/Cyclin-H): 280 nM
Kd [7]: 0.7 nM
EC50 [8]: < 100 nM
Kd [9]: 6.5 nM
SMILES: CC(C)N1CCN(c2ccc(Nc3ncc4cc5n(c4n3)C3(CCCCC3)CNC5=O)nc2)CC1 [LEROCICLIB]

IC50 [10]: 49000 nM
IC50 [11]: 1200 nM
IC50 [12]: 34000 nM
IC50 [13]: 9400 nM
SMILES: CC(C)c1cnn2c(NCc3ccccc3)cc(NC[C@H]3CCNC[C@@H]3O)nc12 [CT-7001]
inhibition in vivo at 100 mg/kg (HCT-116): 60%

IC50 (CDK7/Cyclin H/MNAT1 [18]): 84 nM
IC50 (CDK12/Cyclin K [16]): 20 nM
IC50 (CDK7/Cyclin H/MNAT1 [19]): 590 nM
EC50 (HL-60): 8 nM
IC50 (CDK9/cyclin T1 [20]): 914 nM
EC50 (CDK7/Cyclin H/MNAT1 [21]): 13 nM
Ki (CDK7/Cyclin H/MNAT1 [22]): 17.4 nM
clearance [17]: 6 mL/min/kg
SMILES: CN(C)C/C=C/C(=O)Nc1ccc(C(=O)N[C@@]2(C)CCC[C@@H](Nc3ncc(Cl)c(-c4c[nH]c5ccccc45)n3)C2)nc1

IC50 [11]: 90 nM
SMILES: CC(C)c1cnn2c(NCc3ccccc3)cc(N[C@@H](CO)[C@H](O)CO)nc12

IC50 (CDK7/Cyclin H/MNAT1 [29]): 53 nM
SMILES: C=CC(=O)Nc1ccc(C(=O)Nc2n[nH]c3c2CN(C(=O)N[C@H](CN(C)C)c2ccccc2)C3(C)C)cc1

IC50 (CDK7/Cyclin H/MNAT1 [18]): 23 nM
Ratio [30]: 0.05 µM⁻¹ s⁻¹
IC50 (CDK7/Cyclin H/MNAT1 [19]): 205 nM
Kinact [31]: 11.3 h⁻¹
EC50 (HL-60): 3 nM
IC50 (CDK9/cyclin T1 [20]): 226 nM
EC50 (CDK7/Cyclin H/MNAT1 [21]): 4 nM
Ki (CDK7/Cyclin H/MNAT1 [22]): 62.5 nM
clearance [17]: 29 mL/min/kg
SMILES: CN(C)C/C=C/C(=O)Nc1ccc(C(=O)N[C@H]2CCC[C@@H](Nc3ncc(Cl)c(-c4c[nH]c5ccccc45)n3)C2)nc1

IC50 (CDK7/Cyclin H/MNAT1 [18]): 112 nM
IC50 (CDK12/Cyclin K [16]): 312 nM
Ratio [30]: 0.013 µM⁻¹ s⁻¹
IC50 (CDK7/Cyclin H/MNAT1 [19]): 908 nM
Kinact [31]: 4.8 h⁻¹
EC50 (HL-60): 13 nM
IC50 (CDK9/cyclin T1 [20]): 627 nM
EC50 (CDK7/Cyclin H/MNAT1 [21]): 48 nM
Ki (CDK7/Cyclin H/MNAT1 [22]): 105 nM
clearance [17]: 17 mL/min/kg
SMILES: CN(C)C/C=C/C(=O)Nc1ccc(C(=O)N[C@H]2CCC[C@@H](Nc3ncc(Cl)c(-c4c[nH]c5ccccc45)n3)C2)cc1

IC50 [32]: 932 nM
IC50 (CDK9/cyclin T1 [33]): 20 nM
SMILES: C=CC(=O)Nc1cccc(Nc2cc(N3CCCC[C@H]3CCO)nc3c(CC)cnn23)c1

IC50 (OVCAR-3): 48 nM
IC50 (MCF7): 48 nM
SMILES: C[C@@]1(O)CCC[C@H]1n1c(=O)c(C(F)F)cc2cnc(NC3CCN(S(C)(=O)=O)CC3)nc21 [EBVACICLIB]

More lines, now with the values behind:

SMILES: CN(C)C/C=C/C(=O)Nc1ccc(C(=O)Nc2cccc(Nc3ncc(Cl)c(-c4c[nH]c5ccccc45)n3)c2)cc1
IC50 (CDK12/Cyclin K [14]): 893 nM
IC50 [15]: 628 nM
IC50 (CDK12/Cyclin K [16]): 371 nM
EC50 (HL-60): 38 nM
clearance [17]: 129 mL/min/kg

SMILES: CC(C)c1cnn2c(NCc3ccccc3)cc(NCCCCCCN)nc12
IC50 [10]: 33000 nM
IC50 [11]: 4200 nM
IC50 [12]: 47000 nM
IC50 [13]: 3000 nM

SMILES: CN1CCN(c2ccc(Nc3ncc4cc5n(c4n3)C3(CCCCC3)CNC5=O)nc2)CC1 [TRILACICLIB]
IC50 (Hs 683): 30 nM

SMILES: C=CC(=O)N1CCN(C(=O)OC(C)(C)C)c2ccccc21
inhibition [23]: 83%
inhibition [24]: 2%

SMILES: CN(C)C/C=C/C(=O)Nc1cccc(S(=O)(=O)N2CCC(NC(=O)c3n[nH]cc3NC(=O)c3c(Cl)cc(Cl)cc3Cl)CC2)c1
IC50 [25]: 88 nM

SMILES: O=C1Nc2ccc([N+](=O)[O-])cc2/C1=C1/Nc2ccc(O)cc2/C1=N\O
IC50 (K562): 669 nM
IC50 [26]: 2 to 60 nM
IC50 [27]: 711 nM
IC50 [28]: 856 nM

SMILES: CN(C)C/C=C/C(=O)Nc1ccc(C(=O)N2CCC[C@@H](Nc3ncc(Cl)c(-c4c[nH]c5ccccc45)n3)C2)cc1
IC50 (CDK9/cyclin T1 [20]): 834 nM

SMILES: C=CC(=O)N1CCN(C(=O)OC)c2ccccc21
inhibition [23]: 5%
inhibition [24]: -2%

SMILES: CC[C@H](Nc1nc(NCc2cnc(C)cc2C)c2ncn(C(C)C)c2n1)[C@@H](C)O [CYC-065]
IC50 [34]: 5 nM
IC50 [13]: 23 nM
